Assay results: article PMC7764243, “Alterins Produced by Oyster-Associated Pseudoalteromonas Are Antibacterial Cyclolipopeptides with LPS-Binding Activity” (Marine Drugs, 2020)
Values after ≈ are worked out from the molar mass of the structure shown. *1 amine or outer side, *2 acyl side, *3 side chain or, on linkers, in order; H or OH if unused. Where a SMILES comes first, the peptide text is derived from it. Bridges are numbered along the chain shown (N, C = ends). [ ]: non-standard residue; d: D form. The star is where a group is joined. ξ: configuration not given here. Dab(3ξ-OH) = O=C([C@@H](N[*:1])C(O)CN[*:3])[*:2]; Decanoyl(3ξ-OH) = CCCCCCCC(O)CC(=O)*; X1 = C/C=C(/N[*:1])C(=O)[*:2]; Dab = NCC[C@H](N)C(=O)O

Tests used:
[1] = tested on: Y. ruckeri ATCC 29473; assay type: cell-based, Yersinia ruckeri; conditions: Y. ruckeri ATCC 29473; broth microdilution, 0.1 to 100 µM, 1.10^6 UFC/mL, 48 h, read by unaided eye
Protocol: (§1) Antibacterial activity was assayed against a panel of micro-organisms including human and aquaculture pathogenic bacterial species. MICs were performed and defined according to internationally recognized standards (CLSI [21]). Polymyxin B (PMB), an antibiotic CLP produced by Paenibacillus polymyxa, was used as positive control. The major produced alterins, i.e., alt_952, alt_954, alt_970 and alt_980 were assayed against the whole panel of target cells while the minor ones were only tested against a few bacterial strains (Table 2).
(§2) The bacterial strains Aeromonas caviae CIP 7616, Aeromonas hydrophila CIP 7614, Escherichia coli ML35, Escherichia coli SBS 363, Salmonella enterica CIP 8297 and Yersinia ruckeri ATCC 29473 were grown in Tryptic Soy Broth. The marine bacterial strains Vibrio crassostreaeJ2–9, Vibrio tasmaniensisLGP32, Vibrio tapetis CECT 4600 were grown in Marine Broth. All of them were cultivated at optimal temperature according to ATCC and CIP specifications. The strain Vibrio parahaemolyticus13-028A/3 was grown at 28 °C in Tryptic Soy Broth supplemented in NaCl (20 g.L^−1) according to [47]. The strains Pseudoalteromonas sp. hCg-6 and hCg-42 were cultured using a synthetic medium containing: 17.11 g sucrose, 30 g sea salts (Sigma-S9883), 7.6 g K2HPO4, 3 g KH2PO4 and 20 mL MEM 50X (Dulbecco) per liter. The cultures were grown at 18 °C for 72 h with shaking (100 rpm).
(§3) MICs were determined using broth microdilution method according to [21]. To resume, antibacterial compounds ranging from 0.1 to 100 µM were assayed against the target bacteria in mid-logarithmic phase culture (1.10^6 UFC.mL^−1) in adapted culture medium according to the strain. MICs were examined by unaided eye after a 48h-incubation time at the optimal temperature growth. The lipopeptide PMB (Sigma-P4932) was used as antibiotic control.

[2] = tested on: P. aeruginosa ATCC 27853; assay type: cell-based, Pseudomonas aeruginosa; conditions: P. aeruginosa ATCC 27853; broth microdilution, 0.1 to 100 µM, 1.10^6 UFC/mL, 48 h, read by unaided eye
Protocol: as §1, §3

[3] = tested on: S. enterica CIP 8297; assay type: cell-based, Salmonella enterica; conditions: broth microdilution, 0.1 to 100 µM, 1.10^6 UFC/mL, 48 h, read by unaided eye
Protocol: as §1, §2, §3

[4] = tested on: E. coli SBS363; assay type: cell-based, Escherichia coli; conditions: E. coli SBS363 (short-chain LPS); broth microdilution, 0.1 to 100 µM, 1.10^6 UFC/mL, 48 h, read by unaided eye
Protocol: as §1, §2, §3

[5] = tested on: E. coli ML35; assay type: cell-based, Escherichia coli; conditions: E. coli ML35 (long-chain LPS); broth microdilution, 0.1 to 100 µM, 1.10^6 UFC/mL, 48 h, read by unaided eye
Protocol: as §1, §2, §3

[6] = tested on: V. tasmaniensis LGP32; assay: Viability (cultivability, CFU count) in seawater; assay type: cell-based, Vibrio tasmaniensis; conditions: 20 µM, 4 h incubation in sterile seawater, inoculum 1.10^6 UFC/mL, plated in duplicate
Protocol: As a first step, we have measured the antimicrobial activity of alt_952, alt_954, alt_970 and alt_980 against V. tasmaniensis LGP32 in seawater after a 4 hour-long incubation. […] The effects on membrane were also investigated under the same experimental conditions using live/dead bacterial viability kit for flow cytometry (Figure 6). A net cultivability loss of V. tasmaniensis (2-log reduction) was observed when incubated with alt_954 and alt_980 indicative of a bactericidal effect (Figure 7A). In these conditions, V. tasmaniensis was much less affected by alt_970 (1-log reduction) and not by alt_952 (Figure 7A).
[…] After a 4 h-long incubation, viable bacteria were counted. Diluted samples (50 µL) in sterile seawater were spread in duplicate on appropriate medium. Cultivable bacterial concentration (CFU mL^−1) was determined after overnight incubation at optimal growth temperature.

[7] = tested on: A. caviae CIP 7616; assay type: cell-based, Aeromonas caviae; conditions: broth microdilution, 0.1 to 100 µM, 1.10^6 UFC/mL, 48 h, read by unaided eye
Protocol: as §1, §2, §3

[8] = tested on: Pseudoalteromonas hCg-42; assay type: cell-based, Pseudoalteromonas sp.; conditions: Pseudoalteromonas hCg-42 (producing strain); broth microdilution, 0.1 to 100 µM, 1.10^6 UFC/mL, 48 h, read by unaided eye
Protocol: as §1, §2, §3

[9] = tested on: Pseudoalteromonas hCg-6; assay type: cell-based, Pseudoalteromonas sp.; conditions: Pseudoalteromonas hCg-6 (producing strain); broth microdilution, 0.1 to 100 µM, 1.10^6 UFC/mL, 48 h, read by unaided eye
Protocol: as §1, §2, §3

[10] = tested on: V. tapetis CECT 4600T; assay type: cell-based, Vibrio tapetis; conditions: V. tapetis CECT 4600T; broth microdilution, 0.1 to 100 µM, 1.10^6 UFC/mL, 48 h, read by unaided eye
Protocol: as §1, §2, §3

[11] = tested on: V. parahaemolyticus 13-028A/3; assay type: cell-based, Vibrio parahaemolyticus; conditions: broth microdilution, 0.1 to 100 µM, 1.10^6 UFC/mL, 48 h, read by unaided eye
Protocol: as §1, §2, §3

[12] = LPS binding, surface plasmon resonance (Biacore); parameters: species or system Escherichia coli; conditions: CLPs immobilized (500–600 RU) on CM5 chip, titrated with LPS, 25 °C, 10 mM Hepes pH 7.4, 150 mM NaCl, 3 mM EDTA
Description: To gain insights into LPS-alterin interactions, we used an endotoxin detection assay, the QCL-1000^TM Endpoint chromogenic Limulus Amoebocyte Lysate (LAL) assay (Lonza). We compared alt_954, alt_970 and alt_980 for their ability to bind LPS from E. coli O111:B4. All alterins bound to LPS in a dose-dependent manner, as indicated by the reduction of biologically active LPS with increasing alterins concentrations (Figure 4A). […] To examine alterin LPS-binding properties in more detail, we performed a surface plasmon resonance (SPR) assay using the Biacore technology (GE Healthcare). The SPR binding measurements were performed using the alt_954 and alt_970. PMB was used as a positive control. The CLPs were immobilized to a CM5 sensor chip surface and titrated with LPS. […] The dose-dependent effect observed (Figure 4B) highlights the LPS-binding properties of the alterins. Both LPS-binding assays, i.e., LAL and SPR, are fully agreeing for alt_954. Moreover, the LPS-binding properties of alterins followed the same general pattern as that of antibacterial activity.
Surface plasmon resonance experiments were carried out at 25 °C using a BIACORE 3000 apparatus (GE Healthcare, Uppsala, Sweden). […] The binding level in RU was measured at the end of the binding after normalization to the same CLP coated level.

[13] = tested on: V. tasmaniensis LGP 32; assay type: cell-based, Vibrio tasmaniensis; conditions: V. tasmaniensis LGP 32; broth microdilution, 0.1 to 100 µM, 1.10^6 UFC/mL, 48 h, read by unaided eye
Protocol: as §1, §2, §3

C/C=C1/NC(=O)[C@@H](NC(=O)CC(O)CCCCCCC)C(O)CNC(=O)[C@H](C(O)CN)NC(=O)[C@H](C(O)CN)NC(=O)[C@H](CCCNC(=N)N)NC(=O)[C@H](CC(C)C)NC(=O)[C@H](CCN)NC1=O (stereo partly shown) [alt_970] ({Decanoyl(3ξ-OH)}-[Dab(3ξ-OH)][X1][Dab]LR[Dab(3ξ-OH)][Dab(3ξ-OH)]; lactam 1-C)
MIC [1]: 1.1 µM (≈ 1.07 µg/mL)
MIC [2]: 35.2 µM (≈ 34.2 µg/mL)
MIC [3]: 1.1 µM (≈ 1.07 µg/mL)
MIC [4]: 0.1 µM (≈ 0.0971 µg/mL)
MIC [5]: 35 µM (≈ 34 µg/mL)
cultivability loss of V. tasmaniensis (log reduction of CFU) [6]: 1 log
MIC [7]: 17.6 µM (≈ 17.1 µg/mL)
MIC [8]: >100 µM
MIC [9]: >100 µM
MIC [10]: >100 µM
MIC [11]: 6.25 µM (≈ 6.07 µg/mL)
LPS binding response (SPR, RU) [12]: the response was halved
MIC [13]: 8.8 µM (≈ 8.55 µg/mL)
